Laboratory results as given in PubChem BioAssay (NCI).
Values joined by “and” are separate entries in the source; they are usually repeats but may differ in a detail not shown here. Identical values can stand only once.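 Results reflect a 48-hour exposure of cells in 96-well plates to compound at five concentrations. GI50: concentration for 50% inhibition of growth. TGI marks complete inhibition of growth.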

Legend:
Assay in all cases: NCI anticancer screen, dose series, 48 h
SW-620 colon = system: SW-620 colon
SN12C renal = system: SN12C renal
CCRF-CEM leukemia = system: CCRF-CEM leukemia
OVCAR-3 ovarian = system: OVCAR-3 ovarian
HCT-116 colon = system: HCT-116 colon
PC-3 prostate = system: PC-3 prostate
OVCAR-8 ovarian = system: OVCAR-8 ovarian
HS 578T breast = system: HS 578T breast
SK-MEL-28 melanoma = system: SK-MEL-28 melanoma
SNB-19 CNS = system: SNB-19 CNS

Row | Structure (SMILES) | TGI (SW-620 colon) [µM] | TGI (SN12C renal) [µM] | TGI (CCRF-CEM leukemia) [µM] | TGI (OVCAR-3 ovarian) [µM] | TGI (HCT-116 colon) [µM] | TGI (PC-3 prostate) [µM] | TGI (OVCAR-8 ovarian) | TGI (HS 578T breast) [µM] | TGI (SK-MEL-28 melanoma) [µM] | TGI (SNB-19 CNS) [µM] | GI50 (SW-620 colon) [µM] | GI50 (SN12C renal) [µM] | GI50 (CCRF-CEM leukemia) [µM] | GI50 (OVCAR-3 ovarian) [µM] | GI50 (HCT-116 colon) [µM] | GI50 (PC-3 prostate) [µM] | GI50 (OVCAR-8 ovarian) [µM] | GI50 (HS 578T breast) [µM] | GI50 (SK-MEL-28 melanoma) [µM] | GI50 (SNB-19 CNS) [µM]
1 | O=C1NC(=O)C2(CCC(O)C2)c2cc[n+]([O-])cc21 (centres undefined) | > 100 | > 100 | > 100 | > 100 | > 100 | > 100 | > 100 µM | > 100 | > 100 | > 100 | – | – | – | – | – | – | – | – | – | –
2 | COC(=O)c1c2c(c(C)[n+]([O-])c1C)C(=O)C(NCc1cccc(OC)c1)=CC2=O | 8.96 | 4.94 | 17.1 | 3.21 | 10 | 14.8 | 10.3 µM | 34.7 | 18.2 | 7 | 2.65 | 1.97 | 3.09 | 0.512 | 2.53 | 2.63 | 2.52 | 4.1 | 4.6 | 2.42
3 | Cc1ccc(C2SCc3nc4ccc(C(=O)c5ccccc5)cc4n32)cc1 (centres undefined) | > 39.1 | 38.3 | > 100 | 21.9 | 41.3 | > 67.5 | 62.6 µM | 68.9 | > 100 | > 71.9 | 3.69 | 11.4 | 23.8 | 6.72 | 3.99 | 10.5 | 15.4 | 22.2 | 17.7 | 12.4
4 | O=C(c1ccco1)c1c(C(F)(F)F)nc2cc(C(F)(F)F)ccc2[n+]1[O-] | > 100 | > 100 | 44.3 | > 100 | > 100 | > 100 | > 100 µM | 74.9 | > 100 | > 100 | > 100 | 43.7 | 15.6 | 37.8 | 33.4 | 44.9 | 31.8 | 26.7 | > 100 | 40.7
5 | O=C(N/C(=C\c1ccc(Br)cc1)c1nc2ccccc2s1)c1ccccc1 | > 100 | > 100 | > 100 | > 100 | > 100 | – | > 100 µM | – | > 100 | > 100 | – | – | – | – | – | – | – | – | – | –
6 | COc1ccc(NC(=O)Nc2ccc(Nc3nc(C)cc(Nc4ccc(C)cc4)n3)cc2)cc1 | – | 3.86 | – | 2.81 | – | 2.88 | – | 5.4 | 3.14 | 3.45 | – | 1.88 | – | 1.35 | – | 1.46 | – | 2.22 | 1.51 | 1.06
7 | Cc1ccc(S(=O)(=O)NC(CCC(=O)Nc2ccccc2)C(=O)Nc2ccccc2)cc1 (centres undefined) | 2.93 | – | – | 1.35 | 1.31 | – | 2.57 µM | – | – | – | 0.719 | – | – | 0.419 | 0.273 | – | 0.5 | – | – | –
8 | COc1ccc2[nH]c(-c3cccc(N(C)C)c3)cc(=O)c2c1 | > 100 | > 100 | 0.907 | 0.368 | – | > 100 | 2.48 µM and 5.56 µM | 0.509 | > 100 | – | 0.303 | 0.654 | – | – | 0.56 | 0.435 | 0.433 | – | 0.795 | –
9 | CN(C)c1nc(N(C)C)n2nc(-c3ccccc3[N+](=O)[O-])nc2n1 | 24.2 | > 100 | > 100 | > 100 | 89.2 | – | > 100 µM | – | > 100 | > 100 | – | – | – | – | – | – | – | – | – | –
10 | COc1cc(-c2nc(SCC(=O)Nc3ccc(C(C)=O)cc3)[nH]c(=O)c2C#N)cc(OC)c1OC | > 100 | > 100 | > 100 | > 100 | > 100 | > 100 | > 100 µM | – | > 100 | > 100 | 46.7 | 70.2 | 31.6 | 34 | 42.1 | 36.4 | 73.7 | – | 47.5 | 64
11 | CCc1ccc(/C(C)=N/NC(N)=S)cc1 | – | – | – | > 100 | > 100 | – | > 100 µM | – | > 100 | > 100 | – | – | – | – | – | – | – | – | – | –
12 | NC1=NC2(O)c3ccccc3C(=O)C2(O)N1 (centres undefined) | > 100 | > 100 | > 100 | > 100 | > 100 | – | > 100 µM | – | > 100 | > 100 | – | – | – | – | – | – | – | – | – | –
13 | O=C(CCc1ccccc1)On1nnc2ccccc2c1=O | > 100 | > 100 | > 100 | > 100 | > 100 | – | > 100 µM | – | – | > 100 | – | – | – | – | – | – | – | – | – | –
14 | O=C(CCCNC(=O)OCc1ccccc1)OCc1ccc2c(c1)C(=O)c1ccccc1C2=O | > 100 | > 26 | > 100 | > 100 | > 100 | – | > 56.2 µM | – | > 100 | > 100 | – | – | – | – | – | – | – | – | – | –
15 | COc1ccc(CCNCc2cccc(OC)c2OC)cc1OC | > 100 | > 100 | > 100 | > 100 | – | – | > 100 µM | – | > 100 | > 100 | – | – | – | – | – | – | – | – | – | –
16 | Cc1[nH]nc2c1N=C(c1ccccc1F)c1cc(C#N)ccc1N2 | – | 15.1 | > 13.6 | 8.31 | 6.91 | > 25 | 12.3 µM | 3.83 | > 23.5 | 13.9 | – | 3.87 | 0.113 | 0.0887 | 0.143 | 4.93 | 3.38 | 0.122 | 6.5 | 4.16
17 | COc1ccc(/C=C/c2nc(=S)[nH][nH]2)cc1 | > 100 | > 100 | > 100 | > 100 | > 100 | – | > 100 µM | – | > 100 | > 100 | – | – | – | – | – | – | – | – | – | –
18 | Cc1cccc2c1Oc1cc(Cl)ccc1C2NC(=O)CN(C)C (centres undefined) | > 100 | > 100 | > 100 | – | > 100 | – | > 100 µM | – | 72.7 | > 100 | – | – | – | – | – | – | – | – | – | –
19 | O=C(NCCN1CCOCC1)Nc1ccc(-c2cc3c(Nc4ccc(Oc5cccc(C(F)(F)F)c5)c(Cl)c4)ncnc3s2)cc1 | 2.06 | 8.21 | – | 8.54 | 5.05 | 5.6 | 9.88 µM | 3.84 | 1.6 | 8.52 | 1.01 | 1.97 | – | 2.34 | 1.49 | 1.41 | 2.4 | 1.16 | 0.809 | 2.41
